Measured values taken from patent publication US20250327140A1, “A METHOD OF DETERMINING THE DOSE OF PSYCHEDELICS” (priority 2022, published 2025).

Columns and labels:
[1] = test system: ABCF1 promoter (eGFP reporter); assay: DC2.4 cells transfected with ABCF1-GFP reporter construct, drug screening by fluorescence; type: cell-based; details: for induction of ABCF1-EGFP-IRES (FIG. 11): DC2.4 cells with ABCF1 GFP construct
Description: Cells for use in a high-throughput cell-based screening assay to screen for drugs and genes that stimulate ABCF1 expression were created. In particular, the cells comprise a construct comprising the ABCF1 promoter linked to the sequence encoding eGFP. In the assay, drugs/compositions may be screened for modulating expression of ABCF1 by measuring fluorescence. • 1. DC2.4 cell line was used for the ABCF1-GFP vector (FIG. 7) transfection. DC 2.4 cell line was used as these cells have low endogenous ABCF1 expression. • 2. After 3 days, based on the fluorescent signal, those transfected cells were single cell sorted using cell sorter, compared with DC2.4 cell line without transfection as a negative control. (Those cells with some fluorescent signals were transfected successfully as expected) • 3. Those single cells were collected in a 96 well plate and grown around 2 weeks using DMEM+10% FBS+1% PS, and 12 colonies were picked. • 4. Expended 12 colonies into 24 well plate to grow continuously around 2 weeks with DMEM+10% FBS+1% PS+[…] Hygromycin (selection antibiotics which inserted in the vector) to keep the majority of cells which containing the vector. • 5. 5 colonies were growing well and checked the colonies ABCF1 expression level (checked the GFP reporter in between negative control and positive control (50 uM and 100 μM) to see which colonies is the best to be drug screening cell). • See FIGS. 8 to 11.

ABCF1 [2] = assay: real time RT-PCR specific for ABCF1 and IL-4 in RAW macrophages incubated with Escitalopram; type: cell-based, murine; details: 0.3 mM, 1 hour
Description: RAW macrophages were plated at 1×10^5 cells/well and cultured for 2 days. The cells were incubated with 0.3 mM Escitalopram for 1 hour, and then harvested for total RNA, which was extracted for real time RT-PCR specific for ABCF1 and IL-4. CT values were normalized with CT value for the housekeeping gene from the DMSO control.

ABCF1 [3] = assay: qPCR of ABCF1 transcription in macrophage cell line RAW264.7, dose response with psychedelics; type: cell-based, murine; details: RAW264.7, 10 nM, 100 nM, 500 nM, 2 hours post treatment
Description: • 1. Macrophage cell line RAW264.7 (ATCC) were grown to 80% confluency in growth media (DMEM+10% FBS+glutamine). • 2. Dilutions of the drugs were made at desired final concentrations for a Dose response experiment. The concentrations' used for this experiment are: 10 nM, 100 nM, 500 nM for Psilocin, Psylocibin, 4-Acetoxy-N, N-dimthyltryptamine, O-Acetyl Psilocin Fumerate, and 4-acetoxyindole. • 3. Untreated cells were used as negative control and Escitalopram at 0.3 mM was used as a positive control to activate ABCF1 expression for all the experiments. Analysis by qPCR:
• 1. 2 hours post treatment with drugs, the reaction was stopped by removing the media with the drug. Cells were then collected and RNA was isolated from these. • 2. After checking the quality of the RNA, cDNA was generated and qPCR was run with ABCF1 primers as the target gene and GAPDH as the house keeping gene. • 3. Normalized against the expression level of GAPDH, the fold change expression level of ABCF1 was calculated and tabulated for all treatment conditions.

**Q.** What does the source list for `CC(=O)Oc1cccc2[nH]ccc12` [AOI, 4-acetoxyindole]?
**A.** induction of ABCF1-EGFP-IRES (FIG. 11) [1]: induction; ABCF1 upregulation (FIG. 10) ([1]; after 1 hour drug treatment): upregulates

**Q.** `CN(C)CCC[C@@]1(c2ccc(F)cc2)OCc2cc(C#N)ccc21` [Escitalopram] was tested. Which “difference in ABCF1 and IL-4 expression after drug treatment (macrophage polarization)” value (ABCF1 [2]; consistent in 3 separate experiments) did it give?
**A.** Its value is “consistent with polarization towards an M2-like phenotype”.

**Q.** And the “ABCF1 induction in a macrophage cell line” value (ABCF1 [2]; real time RT-PCR)?
**A.** Its value is “Induces”.

**Q.** And the “induction of ABCF1-EGFP-IRES (FIG. 11)” value [1]?
**A.** The value was “induction”.

**Q.** With `CN(C)CCc1c[nH]c2cccc(O)c12` [psylocin, Psilocin] as the compound, how does the “ABCF1 transcription (fold change vs GAPDH)” value (ABCF1 [3]) read?
**A.** The value was “upregulate”.
